According to ChEMBL document CHEMBL5154722, “Identification of new potent anticancer derivatives through simplifying the core structure and modification on their 14- hydroxyl group from oridonin” (Eur J Med Chem, 2022):
Active and inactive are the calls of the source. The calls are words filed in the database; no cut-off is given here.

Tests used:
K562 [1] = test: Inhibition of MAPK signaling pathway in human K562 cells assessed as reduction in Raf level measured after 48 hrs by Western blot analysis; format: cell-based; settings: dose 25-100 nM, DDE = dose-dependent effect
K562 [2] = test: Antiproliferative activity against human K562 cells assessed as reduction in cell viability incubated for 72 hrs by MTT assay; format: functional, cell-based; settings: K562, 72 h
MDA-MB-231 = test: Antiproliferative activity against human MDA-MB-231 cells assessed as reduction in cell viability incubated for 72 hrs by MTT assay; format: functional, cell-based; settings: MDA-MB-231, 72 h
SMMC-7721 = test: Antiproliferative activity against human […] cells assessed as reduction in cell viability incubated for 72 hrs by MTT assay; format: functional, cell-based; settings: SMMC-7721, 72 h
MCF7 = test: Antiproliferative activity against human MCF7 cells assessed as reduction in cell viability incubated for 72 hrs by MTT assay; format: functional, cell-based; settings: MCF7, 72 h
SW480 = test: Antiproliferative activity against human SW480 cells assessed as reduction in cell viability incubated for 72 hrs by MTT assay; format: functional, cell-based; settings: SW480, 72 h
HeLa = test: Antiproliferative activity against human HeLa cells assessed as reduction in cell viability incubated for 72 hrs by MTT assay; format: functional, cell-based
[3] = Antiproliferative activity against human U-87 MG cells assessed as reduction in cell viability incubated for 72 hrs by MTT assay; format: functional, cell-based, U-87MG ATCC
H22 [4] = test: Antiproliferative activity against mouse H22 cells assessed as reduction in cell viability incubated for 72 hrs by MTT assay; format: functional, cell-based; settings: H22, 72 h
[5] = Cytotoxicity against human L02 cells assessed as reduction in cell viability incubated for 72 hrs by MTT assay; format: toxicity, cell-based
[6] = Selectivity index, ratio of IC50 for human L02 cells to IC50 for human SMMC-7721 cells; format: toxicity; settings: L02 cells and SMMC-7721 cells, read-out: Ratio IC50
K562 [7] = test: Induction of cell cycle arrest in human K562 cells assessed as accumulation of cells at G2 phase at 25 nM measured after 48 hrs by propidium iodide staining-based flow cytometric analysis (reference value: 15.30%); format: functional
K562 [8] = test: Induction of cell cycle arrest in human K562 cells assessed as accumulation of cells at S phase at 25 nM measured after 48 hrs by propidium iodide staining-based flow cytometric analysis (reference value: 37.29%); format: functional
K562 [9] = test: Induction of cell cycle arrest in human K562 cells assessed as accumulation of cells at G1 phase at 50 nM measured after 48 hrs by propidium iodide staining-based flow cytometric analysis (reference value: 47.40%); format: functional
K562 [10] = test: Induction of cell cycle arrest in human K562 cells assessed as accumulation of cells at G2 phase at 50 nM measured after 48 hrs by propidium iodide staining-based flow cytometric analysis (reference value: 15.30%); format: functional
K562 [11] = test: Induction of cell cycle arrest in human K562 cells assessed as accumulation of cells at S phase at 50 nM measured after 48 hrs by propidium iodide staining-based flow cytometric analysis (reference value: 37.29%); format: functional
K562 [12] = test: Induction of cell cycle arrest in human K562 cells assessed as accumulation of cells at G1 phase at 100 nM measured after 48 hrs by propidium iodide staining-based flow cytometric analysis (reference value: 47.40%); format: functional
K562 [13] = test: Induction of cell cycle arrest in human K562 cells assessed as downregulation of cdc2 measured after 48 hrs by Western blot analysis; format: functional, cell-based; settings: dose 25-100 nM, DDE = dose-dependent effect
K562 [14] = test: Induction of apoptosis in human K562 cells assessed as early apoptotic cells at 25 nM measured after 48 hrs by Annexin V-FITC/PI staining based flow cytometry method (reference value: 1.62%); format: functional
K562 [15] = test: Induction of apoptosis in human K562 cells assessed as late apoptotic cells at 25 nM measured after 48 hrs by Annexin V-FITC/PI staining based flow cytometry method (reference value: 3.53%); format: functional
K562 [16] = test: Induction of apoptosis in human K562 cells assessed as viable cells at 50 nM measured after 48 hrs by Annexin V-FITC/PI staining based flow cytometry method (reference value: 94.41%); format: functional; settings: read-out: Activity
K562 [17] = test: Induction of apoptosis in human K562 cells assessed as early apoptotic cells at 50 nM measured after 48 hrs by Annexin V-FITC/PI staining based flow cytometry method (reference value: 1.62%); format: functional
K562 [18] = test: Induction of apoptosis in human K562 cells assessed as late apoptotic cells at 50 nM measured after 48 hrs by Annexin V-FITC/PI staining based flow cytometry method (reference value: 3.53%); format: functional
K562 [19] = test: Induction of apoptosis in human K562 cells assessed as viable cells at 100 nM measured after 48 hrs by Annexin V-FITC/PI staining based flow cytometry method (reference value: 94.41%); format: functional; settings: read-out: Activity
K562 [20] = test: Induction of apoptosis in human K562 cells assessed as early apoptotic cells at 100 nM measured after 48 hrs by Annexin V-FITC/PI staining based flow cytometry method (reference value: 1.62%); format: functional
K562 [21] = test: Induction of apoptosis in human K562 cells assessed as late apoptotic cells at 100 nM measured after 48 hrs by Annexin V-FITC/PI staining based flow cytometry method (reference value: 3.53%); format: functional
K562 [22] = test: Induction of apoptosis in human K562 cells assessed as necrotic cells at 100 nM measured after 48 hrs by Annexin V-FITC/PI staining based flow cytometry method (reference value: 0.44%); format: functional
K562 [23] = test: Induction of apoptosis in human K562 cells assessed as intracellular ROS generation measured after 48 hrs by DCFH-DA staining based flow cytometry method; format: functional, cell-based; settings: dose 25-100 nM, DDE = dose-dependent effect
K562 [24] = test: Induction of apoptosis in human K562 cells assessed as reduction in phosphorylated Akt level measured after 48 hrs by Western blot analysis; format: functional, cell-based; settings: dose 25-100 nM, DDE = dose-dependent effect
K562 [25] = test: Induction of apoptosis in human K562 cells assessed as decrease in Bcl-2 level at 25 to 100 nM measured after 48 hrs by Western blot analysis; format: functional, cell-based; settings: dose 25-100 nM
K562 [26] = test: Induction of apoptosis in human K562 cells assessed as increase in caspase-9 level measured after 48 hrs by Western blot analysis; format: functional, cell-based; settings: dose 25-100 nM, DDE = dose-dependent effect
K562 [27] = test: Inhibition of MAPK signaling pathway in human K562 cells assessed as reduction in phosphorylated MEK measured after 48 hrs by Western blot analysis; format: cell-based; settings: dose 25-100 nM, DDE = dose-dependent effect
H22 [28] = test: Antitumor activity against mouse H22 cells allografted in ICR mouse assessed as reduction in tumor volume at 20 mg/kg, iv administered once a day for 21 days after 7 days of tumor implantation measured every two days; format: functional, organism-based; settings: time 21.0 day
H22 [29] = test: Antitumor activity against mouse H22 cells allografted in ICR mouse assessed as reduction in tumor weight at 20 mg/kg, iv administered once a day for 21 days after 7 days of tumor implantation; format: functional; parameters: scale not given: the % may be the effect or the level left; settings: time 21 day
[30] = Toxicity in ICR mouse allografted with mouse H22 cells assessed as effect on heart morphology at 10 to 20 mg/kg, iv administered once a day for 21 days after 7 days of tumor implantation by H and E staining method; format: organism-based; settings: in vivo, 504 h, dose 10-20 mg/kg, time 21 day
[31] = Toxicity in ICR mouse allografted with mouse H22 cells assessed as effect on liver morphology at 10 to 20 mg/kg, iv administered once a day for 21 days after 7 days of tumor implantation by H and E staining method; format: organism-based; settings: in vivo, 504 h, dose 10-20 mg/kg, time 21 day

- IC50 (K562 [2]): 90 nM
- IC50 (MDA-MB-231): 420 nM
- IC50 (SMMC-7721): 450 nM
- IC50 (MCF7): 700 nM
- IC50 (SW480): 1030 nM
- IC50 (HeLa): 1130 nM
SMILES: C=C1C(=O)[C@]23[C@H](OC(=O)/C=C/c4ccncc4)[C@H]1CC[C@H]2[C@]12CCCC(C)(C)[C@H]1[C@H](O)[C@@]3(O)OC2
- Activity (K562 [1]): Dde
- IC50 [3]: 840 nM
- IC50 (H22 [4]): 230 nM
- IC50 at 72 h [5]: 3180 nM
- selectivity ratio [6]: 7.12
- Activity (K562 [7]): 22.14%
- Activity (K562 [8]): 38.36%
- Activity (K562 [9]): 36.76%
- Activity (K562 [10]): 26.72%
- Activity (K562 [11]): 36.52%
- Activity (K562 [12]): 33.85%
- Activity (K562 [13]): Dde
- Activity (K562 [14]): 10.6%
- Activity (K562 [15]): 6.87%
- viability at 0.05 µM (K562 [16]): 66.7%
- Activity (K562 [17]): 13.97%
- Activity (K562 [18]): 19.26%
- viability at 0.1 µM (K562 [19]): 33%
- Activity (K562 [20]): 42.81%
- Activity (K562 [21]): 20.92%
- Activity (K562 [22]): 3.25%
- Activity (K562 [23]): Dde
- Activity (K562 [24]): Dde
- Activity (K562 [25]): Active
- Activity (K562 [26]): Dde
- Activity (K562 [27]): Dde
- Activity (H22 [28]): Active
- Activity (H22 [29]): 78.92%
- Activity [30]: Non-Toxic
- Activity [31]: Non-Toxic
